Assay results reported in patent US20190262409A1, “NOVEL LACTOBACILLUS SAKEI AND COMPOSITION COMPRISING THE SAME” (CJ Cheiljedang Corporation, priority 2016, published 2019).

Key:
Type in all cases: in vivo
[1] = tested on: obesity induced mice with high fat diet; experiment: Autopsy and blood biochemistry examination in high fat diet mice; conditions: serum, day 49, 16 h fasted, compared to HFD or GC group (FIG. 9)
Text: (§1) From the time of arrival, all animals underwent a 6-week induction period, including a one-week acclimation period. The mice were divided into normal diet (negative control) and high fat diet (positive control and experiment group) and each fed, while given feed and water ad libitum for 6 weeks from the day of division (day 0). The CJLS03 according to the present disclosure was grouped according to concentrations (low: 10^8 CFU, medium: 10^9 CFU, high: 10^10 CFU). To measure accurate efficacy, a commercially available FDA-approved anti-obesity drug Orlistat (Product name: Zenical), and a health function food Garcinia cambogia were added as experiment groups in addition to the normal diet control group and high fat diet group, and compared with the anti-obesity function of the lactic acid bacterial.
For administration, the lactic acid bacteria were homogeneously suspended in PBS and administered in a 10 mL/kg of administration volume twice daily at determined times (10:00 A.M. to 11:00 A.M., 5:00 P.M. to 6:00 P.M.) for 7 weeks, while the control groups were orally administered with the same amount of solvent vehicle (PBS) twice daily for 7 weeks. Experimental substances were newly prepared and administered into the A.M. and P.M.-administered strain. All strains were stored under refrigeration so as to retain the active condition thereof, and the PBS which was refrigerated was used for washing strain samples and preparing solutions. The experimental animal of each group was fasted for 16 hours and sacrificed on the termination day of experiment (day 49) to be used for blood biochemistry tests and histological evaluation analysis.
On the day of termination of the experiment according to Example 4-1 (day 49), the experimental animals were sacrificed after stopping their diets for 16 hours and autopsied. All of the experimental animals were subjected to collection of about 500 μL to 700 μL of blood using a heparin-free capillary tube of plexus venosus under an ether inhalation anesthesia. The collected blood was put in an SST tube and coagulated for 30 minutes to 1 hour at room temperature. The blood was then centrifuged at 4° C. and 4000 rpm for 10 minutes to separate the serum followed by storing at −80° C. until the analysis. The amounts of glucose (GLU), triglyceride (TG), total cholesterol (TC), low-density lipoprotein cholesterol (LDL), high-density lipoprotein cholesterol (HDL), glutamate oxaloacetate transaminase (GOT; AST), glutamate pyruvate transaminase (GPT; ALT), CREA (creatinine), and lactate dehydrogenase (LDH) in the separated serum were measured using a blood biochemistry (Accute TBA-40FR, Toshiba Medical System Co., Japan).

[2] = tested on: obesity induced mice with high fat diet; experiment: Measurement of organ fat weight in high fat diet mice; conditions: compared with HFD group (FIGS. 10 and 11)
Text: (§2) From the time of arrival, all animals underwent a 6-week induction period, including a one-week acclimation period. The mice were divided into normal diet (negative control) and high fat diet (positive control and experiment group) and each fed, while given feed and water ad libitum for 6 weeks from the day of division (day 0). The CJLS03 according to the present disclosure was grouped according to concentrations (low: 10^8 CFU, medium: 10^9 CFU, high: 10^10 CFU). […]
(§3) For administration, the lactic acid bacteria were homogeneously suspended in PBS and administered in a 10 mL/kg of administration volume twice daily at determined times (10:00 A.M. to 11:00 A.M., 5:00 P.M. to 6:00 P.M.) for 7 weeks, while the control groups were orally administered with the same amount of solvent vehicle (PBS) twice daily for 7 weeks. […]
After blood was collected, the visceral examination was carried out to confirm the presence of abnormalities in the internal organs, and the adipose tissues (epididymal fat, subcutaneous fat, mesenteric fat) were extracted. […] The weight of each adipose tissue was measured with an electronic balance. Additionally, the relative tissue weight per 100 g of body weight was calculated based on the body weight fasted before autopsy (calculation formula: relative organ weight (%)=organ weight (g)/fasting body weight before autopsy (g)×100). […]

[3] = tested on: obesity induced mice with high fat diet; experiment: Histological evaluation of liver tissue (H & E) in high fat diet mice; conditions: H & E stained liver sections; CJLS03 high concentration group (FIG. 12)
Text: as §1
as §3, with “weeks. Experimental substances were newly prepared and administered into the A.M. and P.M.-administered strain.” for “weeks.”
Liver tissues of the ND, HFD, OLS, GC, and high CJLS03 concentration groups were histologically evaluated. […]

[4] = tested on: obesity induced mice with high fat diet; experiment: Measurement of size of adipocytes in high fat diet mice; conditions: compared to HFD and GC groups; CJLS03 high concentration group (FIG. 13)
Text: as §2, §3
Measuring the size of adipocytes is well known as an effective method capable of proving the anti-obesity efficacy. […] The adipocyte photos were analyzed using the Scion image program (derived from NIH Image) by calculating an average value of two adipocyte sizes. […]

CCCCCCCCCCC[C@@H](C[C@@H]1OC(=O)[C@H]1CCCCCC)OC(=O)[C@H](CC(C)C)NC=O [OLS, Orlistat]
concentration of blood HDL [1]: significantly reduce
concentration of blood LDL [1]: significantly reduce
concentration of blood TC (total cholesterol) [1]: significantly reduce
concentration of blood glucose [1]: significantly reduce
fasting weight ([2]; body weight after 16 h fasting before autopsy): lower than those of the HFD group
adipose tissue weights ([2]; epididymal, subcutaneous, mesenteric fat): lower than those of the HFD group
lipid particles in liver tissue [3]: rarely found
sizes of the adipocytes [4]: significantly reduced
